This assay concerns skin-derived precursors (SKPs). The assay is described as follows: Neurite outgrowth / morphological evaluation of neuronal differentiation. The format is cell-based, rat (neonate Wistar). The settings on record: delivered with TAT PTD, 1 to 5 μM. As for the experimental part:
Rodent skin-derived precursor cells (SKPs), which can differentiate to neurons, were used. SKPs were previously isolated from the back dermis of neonate Wistar rats by the authors. These cells were cultured in growth medium composed of DMEM/F12 (1:1; Gibco, Grand Island, NY, USA) containing 2% B27 supplement (Gibco), 20 ng/mL epidermal growth factor (EGF; Upstate Biotechnology, Lake Placid, NY, USA), and 40 ng/mL bFGF (PeproTech EC Ltd., Rocky Hill, NJ, USA) in a humidified incubator at 37 °C with 5% CO2. The floating clusters of cultured cells were centrifuged and dissociated into a single-cell suspension by use of a Pasteur pipette with a flame-polished tip. These single cells were then re-suspended into at a concentration of 50,000 cells/mL for passage or experiments. […]
Neurite outgrowth with length exceeding the diameter of the neuronal soma is often assessed as a morphological index of neuronal differentiation. […] Thereafter, neurite outgrowth was evaluated with the following 4 levels: +++, for above 50% of the cells showing neurite outgrowth; ++, for 20–50% with neurite outgrowth; +, for 5–19% having neurite outgrowth; and −, for below 5% of the cells with neurite outgrowth.

This is an account of results in publication PMC5855688, “BC-Box Motif-Mediated Neuronal Differentiation of Somatic Stem Cells” (International Journal of Molecular Sciences, 2018).

For “YARAAARQARASLTHLCRLEI [ASB3 BC-box motif alone]”, the “Neurite Outgrowth Activity” value (BC-box motif alone (10-residue) peptides) is listed as “- (below 5% of the cells with neurite outgrowth)”. Take “YARAAARQARASLTHLCRLEIRSSIK [ASB3 BC-box motif plus five amino acids]”: the “Neurite Outgrowth Activity” value (BC-box motif plus five C-terminal amino acids peptides) is “++ (20–50% with neurite outgrowth)”.
